In the assay the target is T1, Recombinant human EP300 containing the bromodomain (EP300-BD (1040-1161)) (Homo sapiens, UniProt Q09472).
T1 construct: Recombinant human EP300 bromodomain (EP300-BD (1040-1161)); made in house; host or cells: E. coli BL21-CodonPlus (DE3), modified pET vector
T1 sequence (Q09472 1040-1161): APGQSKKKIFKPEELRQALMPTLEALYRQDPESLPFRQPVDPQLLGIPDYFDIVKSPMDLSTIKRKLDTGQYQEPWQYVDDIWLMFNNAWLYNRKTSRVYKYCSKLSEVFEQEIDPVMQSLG
Kind of assay: EP300 Alphascreen binding assay. In a few lines: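 Displacement of a biotinylated acetyl-K56 histone H3 peptide from the N-His bromodomain construct (1040-1161) measured by AlphaScreen proximity, beads at 7.5 μg/ml final, read 60 min after addition. Protein, peptide and compound first incubated 1 h at room temperature, pH 7.5 HEPES buffer; IC50 by four-parameter logistic fit.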
(Bead proximity is the source of the signal in Alpha formats.)

The term IC50 denotes the concentration that inhibits the measured activity by half. For `Cc1noc(C)c1-c1cnc2c(c1)c(-c1cccc(C(=O)O)c1)cn2Cc1ccccn1` [P-0049, 3-(5-(3,5-dimethylisoxazol-4-yl)-1-(pyridin-2-ylmethyl)-1H-pyrrolo[2,3-b]pyridin-3-yl)benzoic acid], the IC50 was 0.1 to 1000 nM. Under `Cc1noc(C)c1-c1cnc2c(c1)c(-c1cccc(C(=O)O)c1)cn2CC1CC1` [P-0050, 3-(1-(cyclopropylmethyl)-5-(3,5-dimethylisoxazol-4-yl)-1H-pyrrolo[2,3-b]pyridin-3-yl)benzoic acid] stands 0.1 to 1000 nM; under `Cc1noc(C)c1-c1cnc2c(c1)c(C#CC(C)(C)C(=O)O)cn2Cc1ccccc1` [P-0051, 4-(1-benzyl-5-(3,5-dimethylisoxazol-4-yl)-1H-pyrrolo[2,3-b]pyridin-3-yl)-2,2-dimethylbut-3-ynoic acid], 0.1 to 1000 nM. For `COC(=O)c1cc(-n2cc(Cc3ccccc3)c3ncc(-c4c(C)noc4C)cc32)ccn1` [P-0052, methyl 4-(3-benzyl-6-(3,5-dimethylisoxazol-4-yl)-1H-pyrrolo[3,2-b]pyridin-1-yl)picolinate], the IC50 was in the range of 0.1 to 1000 nM. As for `Cc1noc(C)c1-c1cnc2c(Cc3ccccc3)cn(-c3ccnc(C(=O)O)c3)c2c1` [P-0053, 4-(3-benzyl-6-(3,5-dimethylisoxazol-4-yl)-1H-pyrrolo[3,2-b]pyridin-1-yl)picolinic acid], the IC50 is 0.1 to 1000 nM.

In the case of `Cc1noc(C)c1-c1cnc2c(C(=O)c3ccccc3)cn(-c3ccnc(C(=O)O)c3)c2c1` [P-0054, 4-(3-benzoyl-6-(3,5-dimethylisoxazol-4-yl)-1H-pyrrolo[3,2-b]pyridin-1-yl)picolinic acid], the IC50 lay in the range of 0.1 to 1000 nM. In the case of `Cc1noc(C)c1-c1cnc2c(c1)c(-c1ccc(C(=O)O)cc1OC(F)(F)F)cn2-c1ccc(C2CC2)nc1` [P-0388, 4-(1-(6-cyclopropylpyridin-3-yl)-5-(3,5-dimethylisoxazol-4-yl)-1H-pyrrolo[2,3-b]pyridin-3-yl)-3-(trifluoromethoxy)benzoic acid], the concentration for half-maximal inhibition (IC50) lay within 0.1 to 1000 nM. Under `Cc1noc(C)c1-c1cnc2c(c1)c(-c1ccc(C(=O)O)cc1OC(F)(F)F)cn2C1CCC(C#N)C1` (stereo not shown) [P-0389, 4-(1-(3-cyanocyclopentyl)-5-(3,5-dimethylisoxazol-4-yl)-1H-pyrrolo[2,3-b]pyridin-3-yl)-3-(trifluoromethoxy)benzoic acid] stands 0.1 to 1000 nM.

For `Cc1noc(C)c1-c1cnc2c(c1)c(-c1c(Cl)cc(C(=O)O)cc1OCC(F)F)cn2-c1cnc(C2CC2)nc1` [P-0390, 3-chloro-4-(1-(2-cyclopropylpyrimidin-5-yl)-5-(3,5-dimethylisoxazol-4-yl)-1H-pyrrolo[2,3-b]pyridin-3-yl)-5-(2,2-difluoroethoxy)benzoic acid], the IC50 was in the range of 0.1 to 1000 nM.

Turning to `Cc1noc(C)c1-c1cnc2c(c1)c(-c1c(Cl)cc(C(=O)O)cc1OC1CCC1)cn2-c1cnc(C2CC2)nc1` [P-0391, 3-chloro-5-cyclobutoxy-4-(1-(2-cyclopropylpyrimidin-5-yl)-5-(3,5-dimethylisoxazol-4-yl)-1H-pyrrolo[2,3-b]pyridin-3-yl)benzoic acid], the half-maximal inhibitory concentration (IC50) fell in the range of 0.1 to 1000 nM.

Take `COc1ncc(-n2cc(-c3ccc(C(=O)O)cc3OC(F)(F)F)c3cc(-c4c(C)noc4C)cnc32)cn1` [P-0392, 4-(5-(3,5-dimethylisoxazol-4-yl)-1-(2-methoxypyrimidin-5-yl)-1H-pyrrolo[2,3-b]pyridin-3-yl)-3-(trifluoromethoxy)benzoic acid]: the IC50 lay within 0.1 to 1000 nM. Turning to `Cc1noc(C)c1-c1cnc2c(c1)c(-c1c(Cl)cc(C(=O)O)cc1OC(C)C)cn2-c1cnc(C2CC2)nc1` [P-0393, 3-chloro-4-(1-(2-cyclopropylpyrimidin-5-yl)-5-(3,5-dimethylisoxazol-4-yl)-1H-pyrrolo[2,3-b]pyridin-3-yl)-5-isopropoxybenzoic acid], the IC50 is 0.1 to 1000 nM. For `Cc1noc(C)c1-c1cnc2c(c1)c(-c1c(F)cc(C(=O)O)cc1OC1CC1)cn2C(C1CC1)C1CC1` [P-0394, 3-cyclopropoxy-4-(1-(dicyclopropylmethyl)-5-(3,5-dimethylisoxazol-4-yl)-1H-pyrrolo[2,3-b]pyridin-3-yl)-5-fluorobenzoic acid], the IC50 was in the range of 0.1 to 1000 nM. Under `Cc1noc(C)c1-c1cnc2c(c1)c(-c1c(Cl)cc(C(=O)O)cc1OC(F)(F)F)cn2-c1ncccc1C#N` [P-0395, 3-chloro-4-(1-(3-cyanopyridin-2-yl)-5-(3,5-dimethylisoxazol-4-yl)-1H-pyrrolo[2,3-b]pyridin-3-yl)-5-(trifluoromethoxy)benzoic acid] stands 0.1 to 1000 nM; under `Cc1noc(C)c1-c1cnc2c(c1)c(-c1c(Cl)cc(C(=O)O)cc1OC1CCC1)cn2-c1ncccc1C#N` [P-0396, 3-chloro-4-(1-(3-cyanopyridin-2-yl)-5-(3,5-dimethylisoxazol-4-yl)-1H-pyrrolo[2,3-b]pyridin-3-yl)-5-cyclobutoxybenzoic acid], 0.1 to 1000 nM.

For the compound `Cc1noc(C)c1-c1cnc2c(c1)c(-c1c(F)cc(C(=O)O)cc1OC1CC1)cn2C1CCOCC1` [P-0397, 3-cyclopropoxy-4-(5-(3,5-dimethylisoxazol-4-yl)-1-(tetrahydro-2H-pyran-4-yl)-1H-pyrrolo[2,3-b]pyridin-3-yl)-5-fluorobenzoic acid], the IC50 lay within 0.1 to 1000 nM. Regarding `CCOc1nc(C(=O)O)c(Cl)cc1-c1cn(C2CCOCC2)c2ncc(-c3c(C)noc3C)cc12` [P-0398, 3-chloro-5-(5-(3,5-dimethylisoxazol-4-yl)-1-(tetrahydro-2H-pyran-4-yl)-1H-pyrrolo[2,3-b]pyridin-3-yl)-6-ethoxypicolinic acid], the half-maximal inhibitory concentration (IC50) was in the range of 0.1 to 1000 nM. `Cc1noc(C)c1-c1cnc2c(c1)c(-c1ccc(C(=O)O)cc1OC(F)(F)F)cn2-c1ccc(=O)n(C)c1` [P-0399, 4-(5-(3,5-dimethylisoxazol-4-yl)-1-(1-methyl-6-oxo-1,6-dihydropyridin-3-yl)-1H-pyrrolo[2,3-b]pyridin-3-yl)-3-(trifluoromethoxy)benzoic acid]: the IC50 is 0.1 to 1000 nM. Consider `CCc1noc(C)c1-c1cnc2c(c1)c(-c1ccc(C(=O)O)cc1OC(F)(F)F)cn2C1CCOCC1` [P-0400, 4-(5-(3-ethyl-5-methylisoxazol-4-yl)-1-(tetrahydro-2H-pyran-4-yl)-1H-pyrrolo[2,3-b]pyridin-3-yl)-3-(trifluoromethoxy)benzoic acid], for which the 50% inhibitory concentration (IC50) lay in the range of 0.1 to 1000 nM. Take `CCc1onc(C)c1-c1cnc2c(c1)c(-c1ccc(C(=O)O)cc1OC(F)(F)F)cn2C1CCOCC1` [P-0401, 4-(5-(5-ethyl-3-methylisoxazol-4-yl)-1-(tetrahydro-2H-pyran-4-yl)-1H-pyrrolo[2,3-b]pyridin-3-yl)-3-(trifluoromethoxy)benzoic acid]: the IC50 fell in the range of 0.1 to 1000 nM.

As to `Cc1cc(C(=O)O)cc(OC(C)C)c1-c1cn(C2CCOCC2)c2ncc(-c3c(C)noc3C)cc12` [P-0402, 4-(5-(3,5-dimethylisoxazol-4-yl)-1-(tetrahydro-2H-pyran-4-yl)-1H-pyrrolo[2,3-b]pyridin-3-yl)-3-isopropoxy-5-methylbenzoic acid], the IC50 lay within 0.1 to 1000 nM.

Consider `Cc1noc(C)c1-c1cnc2c(c1)c(-c1ccc(C(=O)O)cc1OC(C)C)cn2C1(C)CCOCC1` [P-0403, 4-(5-(3,5-dimethylisoxazol-4-yl)-1-(4-methyltetrahydro-2H-pyran-4-yl)-1H-pyrrolo[2,3-b]pyridin-3-yl)-3-isopropoxybenzoic acid], for which the half-inhibitory concentration (IC50) is 0.1 to 1000 nM.

The values are drawn from US11446287B2, “Compounds and methods for EP300 or CBP modulation and indications therefor” (Opna Immuno-Oncology SA, priority 2019, dated 2022).
